Measured values as given in patent publication US8716438B2, “Matricryptic ECM peptides for tissue reconstruction” (University of Pittsburgh—Of the Commonwealth System of …, priority 2009, dated 2014).

What was measured:
[1] = tested on: human perivascular stem cells; assay: Boyden chamber chemotaxis of human perivascular stem cells; format: cell-based; settings: Neuro Probe 48-well chamber, 3 hours, varying concentrations
Method: To confirm the chemotactic activity for progenitor cells within ECM degradation products, human perivascular stem cells were assessed in vitro in a Boyden chamber. The peptides IAGVGGEKSGGF (Peptide 1, SEQ ID NO: 1) and GPVGPSGPPGK (Peptide 2, SEQ ID NO: 2) were tested.
Perivascular stem cells were isolated from human muscle and propagated in culture as previously described (Crisan M, Yap S, Casteilla L, et al. A perivascular origin for mesenchymal stem cells in multiple human organs. Cell Stem Cell. 2008; 3:301-313).
Perivascular stem cells were cultured in Dulbecco's Modified Eagle's Medium (DMEM) supplemented with 20% fetal calf serum (FCS), 2 mM glutamine, 100 U/ml penicillin, and 100 μg/ml streptomycin in […] at 37° C.
Cultures at passages 10-12 and 50-70% confluence were starved in serum-free DMEM supplemented with 0.5% heat inactivated (FCS) for 14-17 hours. After starvation, cells were harvested in 0.25% trypsin and 0.53 mM EDTA, centrifuged, and resuspended in DMEM with 0.5% heat inactivated FCS at a concentration of 6×10^5 cells/ml for 1 hour. […] After 3 hours, cells facing the upper chamber on the filter were scraped off, and cells facing the bottom filter were fixed in methanol, stained with 500 nM DAPI (Sigma, D9564), and counted using ImageJ (NIH).

[2] = tested on: C57/BL6 mice, amputated third digit; assay: Animal model of digit amputation (in vivo bone formation); parameters: species or system mouse
Method: Animal Model of Digit Amputation: Adult female 6- to 8-week-old C57/BL6 mice (n=4) were subjected to aseptic midsecond phalanx amputation of the third digit on both hind feet. At 0, 24, and 96 h after surgery 15 μL of 10 mM peptide 1 was injected into the footpad below the amputated digit using a 30-gauge needle. A second group of animals (n=4) were treated in the same way except that phosphate buffered saline (PBS) was injected instead of the peptide Animals were killed via cervical dislocation under isoflurane anesthesia at 14 days after surgery. Isolated toes were fixed in 10% neutral buffered formalin (NBF), embedded in paraffin and cut into 5 μm sections, before deparaffinization and staining with Alcian blue at pH 2.5, hematoxylin and eosin (H&E) or Masson's trichrome.

[3] = tested on: human cortical neuroepithelium stem (CTX) cells; assay: CTX cells chemotaxis assay; format: cell-based; settings: 5 h
Method: (§1) Source of Cells and Culture Conditions: Human perivascular stem cells were obtained as described above and were cultured in high-glucose Dulbecco's modified Eagle's medium (DMEM, Invitrogen) containing 20% fetal bovine serum (FBS; Thermo), 100 U/mL penicillin, and 100 μg/mL streptomycin (Sigma) at 37° C. in 5% CO2. Human cortical neuroepithelium stem (CTX) cells were cultured in DMEM:F12 supplemented with 0.03% Human albumin solution, 100 μg/ml human Apo-Transferrin, 16.2 μg/ml Putrescine DiHCl, 5 μg/ml Insulin, 60 ng/ml Progesterone, 2 mM L-Glutamine, 40 ng/ml Sodium Selinite, 10 ng/ml human bFGF, 20 ng/ml human Epidermal growth factor, and 100 nM 4-Hydroxytestosterone.
CTX Cells Chemotaxis Assay: CTX cells (human cortical neuroepithelium stem cells) were grown to ˜80% confluence, made into a single cell suspension, and the migration of 3×10^4 cells per well towards peptide 1 was assayed over 5 h. Migrated cells were stained by 4′,6-diamidino-2-phenylindole and quantified with ImageJ (NIH). All of the data are means of quadruplicate determinations with standard deviations. The assay was performed on three separate occasions.

[4] = tested on: human perivascular stem cells; assay: Human perivascular stem cells osteogenic differentiation; format: cell-based
Method: as §1
Human Perivascular Stem Cells Osteogenic Differentiation: Confluent perivascular stem cells were cultured in osteogenic differentiation medium (DMEM with 20% FBS, 20 μM ascorbic acid and 1.76 mM β-glycophosphate) and analyzed for the presence of calcium deposits after 4, 7, and 14 days. Calcium deposits were detected via fixation in 10% NBF and staining with 2% Alizarin Red.

In the case of “GPVGPSGPPGK (listed as Sus scrofa) [Peptide 2, 11-mer from porcine Collagen type III alpha 1, found in pepsin-digested UBM, chemically synthesized]”, the “Chemotactic activity for progenitor cells” value [1] is reported as “excellent chemotactic activity”.
For “IAGVGGEKSGGF (listed as Sus scrofa) [Peptide 1, 12-mer from porcine Collagen type III alpha 1, found in pepsin-digested UBM, chemically synthesized]”, the “In vivo bone formation at the amputated digit” value ([2]; 15 μL of 10 mM peptide injected into footpad at 0, 24, 96 h, tissue at 14 days, H&E/trichrome, vs buffer) was “formation of a bone like growth on the side of the amputated digit”, the “Alcian blue staining of sulfated glycosaminoglycans (GAG)” value ([2]; 15 μL of 10 mM peptide into footpad, 14 days, buffer group showed diffuse GAG staining) was “concentrated GAG positive staining only at the bone nodule” and the “Chemotactic activity for progenitor cells” value [1] was “excellent chemotactic activity”. The “Migration of CTX cells compared to media without peptide” value ([3]; all concentrations of peptide, 3×10^4 cells per well) was “increased migration”, the “Peptide concentration at which CTX cell migration was highest” value ([3]; range of concentrations) was 1 µM and the “Bone nodules in standard culture medium” value ([4]; 100 μM peptide, not seen without peptide) was “caused the formation of bone nodules”. For the same sequence, the “Bone nodules in osteogenic differentiation medium” value ([4]; 1, 10 or 100 μM peptide, vs differentiation medium alone) was “more bone nodules”.
